Measured values: publication PMC10976043, “Function and Mechanism of Antiviral Wasp Venom Peptide Protopolybia-MP III and Its Derivatives against HSV-1” (Toxins, 2024)
Where two headings read alike, the source gives them in different places. Ends that are not written are not given here.

What was measured:
HSV-1 ICP0 = assay type: cell-based, herpes simplex virus type 1; conditions: for effect on intracellular HSV-1 ICP0 expression level: HSV-1 MOI 1, 24 h, Western blotting; for inhibition rate on intracellular HSV-1 ICP0 expression level: ICP0, 24 h
Description: (A) Amino acid sequence of Protopolybia-MP III. Basic residues are labeled blue, and acidic residues are labeled red. (B,C) Suppression of intracellular HSV-1 infection by Protopolybia-MP III. Cells were preincubated with Protopolybia-MP III at different concentrations or PBS for 1 h and then infected with HSV-1 at a multiplicity of infection (MOI) of 1. After 24 h, the cells were collected. Intracellular HSV-1 RNA was analyzed by qPCR (B), and intracellular HSV-1 ICP0 protein levels were analyzed by Western blotting (C). (D) Suppression of Protopolybia-MP III on extracellular HSV-1 particles. Cells were treated with Protopolybia-MP III at different concentrations or PBS for 24 h, and then the supernatant was collected and evaluated in a plaque formation assay. (E) Cytotoxicity of Protopolybia-MP III to Vero cells. Cells were treated with Protopolybia-MP III or PBS at different concentrations for 24 h, and then the cytotoxicity was determined by CCK8 assay. * p < 0.05. ** p < 0.01. *** p < 0.001.
Figure 2 Protopolybia-MP III inhibits HSV-1 replication in human cell lines. (A) Cytotoxicities of Protopolybia-MP III to A549 cells, HCEC, and SK-N-MC. Cells were treated with Protopolybia-MP III at different concentrations or PBS for 24 h, and then cytotoxicities were determined by the CCK8 assay. (B,C) Suppression of intracellular HSV-1 infection by Protopolybia-MP III in A549 cells, HCEC, and SK-N-MC. Cells were preincubated with Protopolybia-MP III at different concentrations or PBS for 1 h and then infected with HSV-1 at an MOI of 1. After 24 h, the cells were collected. Intracellular HSV-1 RNA was analyzed by qPCR (B), and intracellular HSV-1 ICP0 protein expression levels were analyzed by Western blotting (C). (D) Inhibition of Protopolybia-MP III on extracellular HSV-1 particles in A549 cells, HCEC, and SK-N-MC. Cells were treated with Protopolybia-MP III at different concentrations or PBS for 24 h, and then the supernatant was collected and evaluated in a plaque formation assay. * p < 0.05. ** p < 0.01. *** p < 0.001.
Figure 7 Antiviral activity analysis of Protopolybia-MP III mutants. (A) Amino acid sequences of Protopolybia-MP III mutants. Identical amino acids among Protopolybia-MP I, Protopolybia-MP III, and its mutants are marked in blue, and different amino acids are marked in red. (B) Suppression of Protopolybia-MP I, Protopolybia-MP III, and its mutants on intracellular HSV-1 content. Cells were preincubated with 20 μg/mL peptides or PBS for 1 h and then infected with HSV-1 at an MOI of 1. After 24 h, the cells were collected. Intracellular HSV-1 ICP0 protein levels were analyzed by Western blotting. The ratios of HSV-1 ICP0 to GAPDH were calculated by ImageJ software. (C) Inhibition of HSV-1 free virion infectivity by Protopolybia-MP I, Protopolybia-MP III, and its mutants. HSV-1 (MOI = 1) and 5 μg/mL peptides or PBS were coincubated at 37 °C for 1 h, and the mixtures were then used to infect Vero cells. After 24 h, cells were collected, and intracellular HSV-1 RNA was analyzed by qPCR. ns, no significance. * p < 0.05. ** p < 0.01. *** p < 0.001.
HSV-1 was kindly provided by Professor Zhijian Cao of Wuhan University. Cells were infected with HSV-1 at an MOI of 1 for 24 h. Then, cells were collected for qPCR, Western blotting, and immunofluorescence assays, and the extracellular supernatant was used for plaque formation assays.
Cells were collected and lysed in 1% SDS. The cell lysate was heated at 100 °C for 20 min and centrifuged at 12,000 rpm at 4 °C for 15 min, and then the supernatant was collected and assayed with a BCA Protein Quantification Kit (Vazyme). Equal amounts of protein were separated using a PAGE Gel Fast Preparation Kit (10%) (Epizyme Biotech, Wuhan, China) and transferred to nitrocellulose (NC) membranes (Millipore, Wuhan, China). […]

HSV-1 virion = experiment: Virion integrity assay (ultracentrifugation/gB Western blotting, electron microscopy); design: species or system herpes simplex virus type 1; conditions: 20 μg/mL with HSV-1 at 37 °C 1 h
Description: Figure 5 Protopolybia-MP III destroys the integrity of HSV-1 free virions. (A) Schematic diagram for studying the effect of Protopolybia-MP III on HSV-1 free virion infectivity. (B) Effects of Protopolybia-MP III on HSV-1 free virion infectivity at different temperatures. HSV-1 (MOI = 1) and 20 μg/mL Protopolybia-MP III or PBS were coincubated at 4 °C, 22 °C, and 37 °C for 1 h, and then Vero cells were infected as described in (A). After 24 h, cells were collected, and intracellular HSV-1 RNA was analyzed by qPCR. (C) Effects of different concentrations of Protopolybia-MP III on HSV-1 free virion infectivity. HSV-1 (MOI = 1) and 1 or 10 μg/mL Protopolybia-MP III or PBS were coincubated at 37 °C for 1 h, and then Vero cells were infected as described in (A). After 24 h, cells were collected, and intracellular HSV-1 RNA was analyzed by qPCR. (D,E) The effect of Protopolybia-MP III on HSV-1 free virion integrity. HSV-1 and 20 μg/mL Protopolybia-MP III or PBS were coincubated at 37 °C for 1 h. Then, after centrifuging for 2 h at 40,000 rpm at 4 °C, the contents of HSV-1 gB in the supernatant and precipitate were detected by Western blotting (D). In addition, the structure of HSV-1 virions after incubation with Protopolybia-MP III was observed by electron microscopy. The red arrow points to a destroyed HSV-1 virion. *** p < 0.001.
HSV-1 virions were coincubated with PBS or 20 μg/mL Protopolybia-MP III at 37 °C for 1 h. Then, the virions were separated by ultracentrifugation at 40,000 rpm at 4 °C for 2 h in a Beckman SW41 rotor (Beckman Coulter, Brea, CA, USA). The supernatant was collected and lyophilized using a vacuum freeze dryer (Labconco FreeZone6L, Kansas City, MO, USA). HSV-1 glycoprotein gB from both the precipitate and supernatant components were measured by Western blotting. In addition, after HSV-1 was coincubated with PBS or 20 μg/mL Protopolybia-MP III at 37 °C for 1 h, samples were placed on 200-mesh var/carbon-coated copper grids by dipping the grids into the virion sample solutions. […]

[1] = ultracentrifugation 40,000 rpm 2 h 4 °C, Western blotting

“INWLKLGKAVIDAL-NH2 [Protopolybia-MP III]” was tested, and the “effect on intracellular HSV-1 ICP0 expression level” value (shortened to “effect”) (HSV-1 ICP0; A549 cells) was “strongly inhibited”, the “effect” value (HSV-1 ICP0; HCEC) was “strongly inhibited” and the “inhibition rate on intracellular HSV-1 ICP0 expression level” value (from here on “inhibition rate”) (HSV-1 ICP0; 5 μg/mL) was 67%. The “inhibition rate” value (HSV-1 ICP0; 10 μg/mL) was 74%, the “inhibition rate” value (HSV-1 ICP0; 20 μg/mL) was 96% and the “effect” value (HSV-1 ICP0; SK-N-MC) was “strongly inhibited”. For the same substance, the “HSV-1 virion structure by electron microscopy” value (HSV-1 virion; negative staining) was “destroyed”, the “gB content in the precipitate compared with PBS treatment” value (HSV-1 virion; [1]) was “significantly reduced” and the “gB content in the supernatant compared with PBS treatment” value (HSV-1 virion; [1]) was “increased”.
